Type in all cases: cell-based, human
The test system of assay [1] is insulin receptor (IR) and AKT/PKB. Nature of the assay: Short insulin treatment of adipocytes derived from iPS cells, phospho-specific Western blot. The note with it: adipocytes after 20 days of differentiation. The method, then: The adipocytes were lysed in a suitable volume of lysis buffer (50 mM Tris pH 7.4, 0.27 M sucrose, 1 mM Na-orthovanadate pH 10, 1 mM EDTA, 1 mM EGTA, 10 mM (3-glycerophosphate, 50 mM NaF, 5 mM pyrophosphate, 1% (w/v) Triton X-100, 0.1% (w/v) 2-β-mercaptoethanol, and protease inhibitors). The total lysates were centrifuged (15,000 g, 4° C. for 10 minutes) then stored at −80° C. until use. The protein concentrations were determined using the Bradford method with bovine albumin as the standard. The samples underwent SDS/PAGE migration on polyacrylamide gels and then were transferred onto nitrocellulose membranes (Amersham Biosciences), blocked for 2 hours at room temperature in TBS-T buffer (50 mM Tris-HCl pH 7.6, 150 mM NaCl, 0.1% (v/v) Tween-20) supplemented with 5% (w/v) skimmed milk or BSA, and incubated with the various antibodies specific to the protein of interest (Table 1 above).
The nitrocellulose membranes were rinsed 3×5 minutes in TBS-T buffer before being incubated with the secondary antibody coupled to peroxidase. The signals were detected using chemiluminescence (Pierce-Perbio Biotechnologies) by exposure on autoradiographic film (Kodak).

The subject of assay [2] is PGC1α, PRDM16, PPARα and DIO2. Nature of the assay: Real-time quantitative PCR of thermogenesis genes after 8-Br-cAMP. The note with it: after 48 hours, D20 adipocytes, vs basal. The protocol: Total RNAs were extracted using the NucleoSpin RNA kit (Macherey Nagel) according to the manufacturer's recommendations. The concentration of total RNAs extracted and their contamination by solvents or salts were evaluated by microspectrophotometry (Nanodrop). Reverse transcription was carried out using the High Capacity cDNA Reverse Transcription Kit (Applied Biosystems). Quantitative PCR was then carried out by adding 2 μL of cDNA diluted 10 times, 10 μL of SYBR Green I PCR mix (Roche Diagnostics, including DNA polymerase, dNTPs, 3 mM MgCl2 and SYBR Green fluorescent probe), 0.2 μM sense primer and 0.2 μM antisense primer (Table 2 below). The reference gene GAPDH was used to normalize the expression of the genes of interest.
(§1) The adipocytes were optionally treated for 6 hours with 10^−5 M isoproterenol (Sigma), then the protein samples were collected. For a longer stimulation, the adipocytes were treated with a non-metabolizable cAMP analogue, 8-Br-cAMP (Sigma), for 48 hours.

In a further assay the test system is beige adipocytes. In words: MitoTracker staining of adipocytes after 8-Br-cAMP. The note with it: after 48 hours, vs basal. The method, then:
as §1
Living cells at D20 of differentiation were incubated with 1 μM MitoTracker® Red CMXRos (Life Technologies®) for 45 minutes in the dark at 37° C., 5% CO2. After rinsing twice with PBS, the cells were fixed with 3% PFA for 15 minutes at room temperature. The preparation was then incubated for 15 minutes with 1 ng/mL BODIPY 493/503 (Molecular Probes®, D-3922) then rinsed 3 times with PBS before being incubated for 5 minutes in DAPI (4′-6-diamidino-2-phenylindole, VWR). After applying the mounting medium (Fluoromount-G™, Southern Biotech), the cells were observed using a confocal microscope (Leica).

As to insulin, the “phosphorylation of the insulin receptor (IR) subunit and its target AKT” value in assay [1] is “strong phosphorylation”.
For `Nc1ncnc2c1nc(Br)n2[C@@H]1O[C@@H]2COP(=O)(O)O[C@H]2[C@H]1O` [8-Br-cAMP], the “expression of genes involved in thermogenesis (PGC1α, PRDM16, PPARα, DIO2)” value in assay [2] is on record as “increase”. For the same molecule, in the assay with beige adipocytes, the “number of mitochondria in the beige adipocytes” value was “increase in the number of mitochondria”.

(Values after patent US20170211043A1, “METHOD FOR IN VITRO PRODUCTION OF ADIPOCYTE PROGENITORS AND ADIPOCYTES” (UNIVERSITE PIERRE ET MARIE CURIE (PARIS 6), priority 2014, published 2017).)
